Laboratory results reported in ChEMBL document CHEMBL5370632, “Expanding the Chemical Space: New Approach to Cell-Permeable Drugs” (ACS Med Chem Lett, 2023).

Assays:
[1] = system: K562; experiment: Antiproliferative activity against human K562 cells assessed as inhibition of cell growth incubated for 3 days by celltiter-glo 2.0 assay; assay type: functional, cell-based; settings: K562, 72 h
[2] = system: K562; experiment: Antiproliferative activity against human K562 cells expressing ABL T315I mutant assessed as inhibition of cell growth incubated for 3 days by celltiter-glo 2.0 assay; assay type: functional, cell-based; settings: K562, 72 h
[3] = molecular target: Bcr/Abl fusion protein (Homo sapiens, UniProt P00519); assay type: protein assay
Description: Inhibition of wild type human BCR-ABL1 using Tyr2 peptide as substrate incubated for 1 hrs by FRET based Z-LYTE assay

[4] = molecular target: Bcr/Abl fusion protein (Homo sapiens, UniProt P00519, T315I); experiment: Inhibition of human BCR-ABL1 T315I mutant using Tyr2 peptide as substrate incubated for 1 hrs by FRET based Z-LYTE assay; assay type: protein assay
[5] = system: K562; experiment: cells; settings: Homo sapiens, K562, 72 h
[6] = system: K562; experiment: cells; settings: Homo sapiens, K562, 72 h; remark: listed apart in the source

Row | SMILES | EC50 [1] | EC50 [2] | EC50 [3] | EC50 [4] | EC50 [5] | EC50 [6]
1 | Cc1ccc(C(=O)Nc2ccc(CN3CCN(C(=O)CCOCCOCCOCCOCCOCCOCCOCCOCCOCCOCCOCCOCCOCCOCCOCCOCCOCCOCCOCCOCCOCCOCCOCCOCCNC(=O)C4CCN(c5ncc(C(=O)Nc6ccc(OC(F)(F)Cl)cc6)cc5-c5ccn[nH]5)CC4)CC3)c(C(F)(F)F)c2)cc1C#Cc1cnc2cccnn12 | 0.87 nM | 26.3 nM | 3.57 nM | 64 nM | – | –
2 | Cc1nc(Nc2ncc(C(=O)Nc3c(C)cccc3Cl)s2)cc(N2CCN(C(=O)CCOCCOCCOCCOCCOCCOCCOCCOCCOCCOCCOCCOCCNC(=O)C3CCN(c4ncc(C(=O)Nc5ccc(OC(F)(F)Cl)cc5)cc4-c4ccn[nH]4)CC3)CC2)n1 | 2.47 nM | > 300 nM | 0.44 nM | 7.23 nM | – | –
3 | Cc1nc(Nc2ncc(C(=O)Nc3c(C)cccc3Cl)s2)cc(N2CCN(C(=O)CCOCCOCCOCCOCCOCCOCCOCCOCCOCCOCCNC(=O)C3CCN(c4ncc(C(=O)Nc5ccc(OC(F)(F)Cl)cc5)cc4-c4ccn[nH]4)CC3)CC2)n1 | 2.49 nM | > 300 nM | 0.8 nM | 23.8 nM | – | –
4 | Cc1nc(Nc2ncc(C(=O)Nc3c(C)cccc3Cl)s2)cc(N2CCN(CCO)CC2)n1 [DASATINIB] | – | – | – | – | 12 nM | 0.26 nM
